This is an account of results in ChEMBL document CHEMBL1687721, “New drugs against tuberculosis: problems, progress, and evaluation of agents in clinical development” (Antimicrob Agents Chemother, 2009).

≈ marks a conversion by molar mass, not a printed value.

Data set [1] can be described thus: Plasma protein binding in CD2F1 mouse at 0.1 to 2.5 ug/ml by ultracentrifugation. It is filed as ADME, cell-free. The conditions noted are these: read-out: PPB (converted).
Data set [2] deals with Mycobacterium tuberculosis. Briefly: Antimicrobial activity against compound-susceptible Mycobacterium tuberculosis. It is filed as functional.
Data set [3] is described as follows: Plasma protein binding in Fischer rat at 0.1 to 2.5 ug/ml by ultracentrifugation. Format: ADME, cell-free. The conditions noted are these: read-out: PPB (converted).
A short description of data set [4]: Plasma protein binding in human at 0.1 to 2.5 ug/ml by ultracentrifugation. Format: ADME, cell-free. The conditions noted are these: read-out: PPB (converted).
Data set [5] in a line: Plasma protein binding in Beagle dog at 0.1 to 2.5 ug/ml by ultracentrifugation. Format: ADME, cell-free, Canis lupus familiaris. The conditions noted are these: read-out: PPB (converted).
The nature of data set [6]: Oral bioavailability in healthy human at 400 mg/kg, po. It is filed as ADME, organism-based. The conditions noted are these: in vivo.
Data set [7] concerns Mycobacterium tuberculosis. It is filed as functional.
Data set [8] can be described thus: clinical. The conditions noted are these: human, in vivo, po, 400 mg/kg.
Description: Tmax in patients with pulmonary tuberculosis at 400 mg/kg, po
For data set [9], the system named is Mycobacterium tuberculosis. The experiment in a line: microbe, parasite or virus in culture.
Description: Antimicrobial activity against rifampicin-sensitive Mycobacterium tuberculosis
Data set [10] is described as follows: Drug excretion in urine of healthy human at 800 mg/kg. It is filed as ADME, organism-based. Set-up: dose 800 mg/kg. The conditions noted are these: read-out: Activity.
Data set [11] can be described thus: AUC in healthy human at 400 mg/kg, po. The conditions noted are these: plasma. The arrangement: dose 400 mg/kg, route oral. Format: ADME, organism-based.
Data set [12] in a line: Drug excretion in feces of healthy human at 800 mg/kg. It is filed as ADME, organism-based. The arrangement: dose 800 mg/kg. The conditions noted are these: faeces, read-out: Activity.
Data set [13] in a line: Half life in healthy human at 600 mg/kg, po. Format: ADME, organism-based. The conditions noted are these: in vivo. Set-up: dose 600 mg/kg, route oral.
The nature of data set [14]: Cmax in healthy human at 600 mg/kg, po. Format: ADME, organism-based. The arrangement: dose 600 mg/kg, route oral. The conditions noted are these: in vivo.
Data set [15] is described as follows: AUC in healthy human at 600 mg/kg, po. It is filed as ADME, organism-based. The arrangement: dose 600 mg/kg, route oral. The conditions noted are these: plasma.
The nature of data set [16]: Plasma protein binding in healthy human at 600 mg/kg, po. The conditions noted are these: read-out: PPB (converted). Set-up: dose 600 mg/kg, route oral. It is filed as ADME, organism-based.
The nature of data set [17]: Ratio of AUC to MIC against Mycobacterium avium. Format: functional.
Data set [18] in a line: Tmax in healthy human at 600 mg/kg, po. Format: ADME, organism-based. The arrangement: dose 600 mg/kg, route oral. The conditions noted are these: in vivo.
Data set [19] concerns Mycobacterium tuberculosis. Briefly: microbe, parasite or virus in culture. The source holds these as a separate data set.
Description: Antimicrobial activity against Mycobacterium tuberculosis
Data set [20] in a line: Half life in human. It is filed as ADME, organism-based. The conditions noted are these: in vivo.
A short description of data set [21]: Tmax in human. Format: ADME, organism-based. The conditions noted are these: in vivo.
Data set [22] in a line: clinical. The conditions noted are these: human, plasma, po, 400 mg/kg.
Description: Plasma protein binding in healthy human at 400 mg/kg, po
Data set [23] is described as follows: Renal excretion in healthy human at 400 mg/kg, po administered as single dose. Set-up: dose 400 mg/kg, route oral. The conditions noted are these: urine, read-out: Activity. It is filed as ADME, organism-based, Kidney.
Data set [24] in a line: Drug excretion in urine of healthy human. Format: ADME, tissue-based. The conditions noted are these: read-out: Activity.
Data set [25] in a line: Half life in healthy human. Format: ADME, organism-based. The conditions noted are these: in vivo.
The nature of data set [26]: Drug excretion in feces of healthy human. It is filed as ADME. The conditions noted are these: faeces, read-out: Activity.
Data set [27] in a line: Tmax in healthy human. It is filed as ADME, organism-based. The conditions noted are these: in vivo.
Data set [28] in a line: Tmax in healthy human at 10 mg/kg, po. It is filed as ADME, organism-based. The arrangement: dose 10 mg/kg, route oral. The conditions noted are these: in vivo.
Data set [29] is described as follows: AUC in healthy human at 10 mg/kg, po. The conditions noted are these: plasma. It is filed as ADME, organism-based. Set-up: dose 10 mg/kg, route oral.
The subject of data set [30] is Mycobacterium avium. The experiment in a line: Antimicrobial activity against Mycobacterium avium. It is filed as functional.
A short description of data set [31]: Plasma protein binding in healthy human at 10 mg/kg, po. The conditions noted are these: read-out: PPB (converted). It is filed as ADME, organism-based. The arrangement: dose 10 mg/kg, route oral.
A short description of data set [32]: Oral bioavailability in healthy human at 10 mg/kg, po. The conditions noted are these: in vivo. Format: ADME, organism-based.
A short description of data set [33]: clinical. The conditions noted are these: human, in vivo, po, 10 mg/kg.

Turning to `CC(C)=CCC/C(C)=C/CNCCNC1C2CC3CC(C2)CC1C3` (stereo unspecified) [SQ109], the fraction unbound in data set [1], in data set [3], in [4] and in data set [5] was 0.94 in each case. The MIC in data set [2] is 0.16 µg/mL (≈ 0.484 µM).
As usually defined, the bioavailability is dose-corrected exposure relative to a reference, in per cent. Lower therefore signals poor availability. For orientation: Tmax means the time at which the peak concentration occurs. A word on the AUC: it is the area under the concentration-time curve, a measure of exposure. Take `COc1c(N2C[C@@H]3CCCN[C@@H]3C2)c(F)cc2c(=O)c(C(=O)O)cn(C3CC3)c12` [MOXIFLOXACIN]: the bioavailability in data set [6] amounted to 86%. The Activity in data set [7] was 37%. Also, in [8], the Tmax was 1 h. The MIC in data set [9] amounted to 0.25 µg/mL (≈ 0.623 µM). Moreover, the dose excreted in [10] came to 20%; in data set [12], 25%. Also, the AUC in data set [11] turned out to be 26900 ng·h/mL.
What is called half-life is the time needed for the level to fall by half in the phase considered. Higher therefore signals slow decline. One may read the Cmax as the highest concentration seen after dosing. The compound `CO[C@H]1/C=C/O[C@@]2(C)Oc3c(C)c(O)c4c(O)c(c(/C=N/N5CCN(C6CCCC6)CC5)c(O)c4c3C2=O)NC(=O)/C(C)=C\C=C\[C@H](C)[C@H](O)[C@@H](C)[C@@H](O)[C@@H](C)[C@H](OC(C)=O)[C@@H]1C` [RIFAPENTINE] showed a half-life in data set [13] of 13 h. The same compound showed a Cmax in data set [14] of 10000 ng/mL. For the same compound, in [15], the area under the curve (AUC) is 319000 ng·h/mL. Further, the fraction unbound in [16] is 0.03. The RatioAUC/MIC in data set [17] is 76.6. In addition, the MIC in data set [9] was 0.02 µg/mL (≈ 0.0228 µM). Moreover, in data set [18], the Tmax worked out at 4.8 h.
Turning to `C[C@]1(COc2ccc(N3CCC(Oc4ccc(OC(F)(F)F)cc4)CC3)cc2)Cn2cc([N+](=O)[O-])nc2O1`, the MIC in data set [2] was 0.006 µg/mL (≈ 0.0112 µM).
Compound `Cc1c(CN2CCN(c3ccc(C(F)(F)F)cc3)CC2)cc(-c2ccccc2)n1NC(=O)c1ccncc1` yielded an MIC90 in data set [19] of 0.25 µg/mL (≈ 0.481 µM).
Compound `CC[C@@H](CO)NCCN[C@@H](CC)CO` [ETHAMBUTOL] came in with an Activity in data set [7] of 26%.
In data set [20], `COc1nc2ccc(Br)cc2cc1[C@@H](c1ccccc1)[C@@](O)(CCN(C)C)c1cccc2ccccc12` [BEDAQUILINE] had a half-life of 24 h. Also, the Tmax in data set [21] amounted to 5 h. For the same compound, the MIC in data set [2] is 0.03 µg/mL (≈ 0.054 µM).
For `COc1c(N2CCNC(C)C2)c(F)cc2c(=O)c(C(=O)O)cn(C3CC3)c12` (stereo unspecified) [GATIFLOXACIN], the bioavailability in data set [6] was found to be 96%. For the same compound, the fraction unbound in data set [22] was 0.8. In addition, in data set [8], the Tmax was 1.5 h. For the same compound, the dose excreted in data set [23] is 77%.
`O=[N+]([O-])c1cn2c(n1)OC[C@@H](OCc1ccc(OC(F)(F)F)cc1)C2` [PRETOMANID]: the figures for the dose excreted in data set [24] and in data set [26] were 65% and 26%, respectively. The same compound displayed an MIC in data set [2] of 0.015 µg/mL (≈ 0.0418 µM). The half-life in data set [25] is 18 h. Further, in [27], the Tmax amounted to 4 h.
`CO[C@H]1/C=C/O[C@@]2(C)Oc3c(C)c(O)c4c(O)c(c(/C=N/N5CCN(C)CC5)c(O)c4c3C2=O)NC(=O)/C(C)=C\C=C\[C@H](C)[C@H](O)[C@@H](C)[C@@H](O)[C@@H](C)[C@H](OC(C)=O)[C@@H]1C` [RIFAMPIN]: the Tmax in data set [28] worked out at 1.5 h. The MIC in [19] and in data set [30] was 0.15 µg/mL (≈ 0.182 µM) each time. Moreover, the area under the curve (AUC) in [29] was determined as 21500 ng·h/mL. Further, the fraction unbound in [31] was 0.15. Also, in [32], the bioavailability was determined as 68%. The same compound displayed a Cmax in data set [33] of 8000 ng/mL.
